According to US20110118353A1, “METHOD OF HORMONE SUPPRESSION IN HUMANS” (N. V. Organon, priority 2007, published 2011):

Legend:
Type in all cases: in vivo, human
[1] = tested on: FSH; test: Experiment 4: single oral dose pharmacodynamic study, serum FSH (DELFIA); details: healthy male volunteers, single oral doses 4, 8, 16 mg
Excerpt: (§1) A phase I, double-blind, parallel groups, placebo-controlled, cross-over, pharmacodynamic study with compound 1 in healthy male volunteers to assess glycinergic responses in cerebro-spinal fluid and plasma after single oral doses
(§2) This was a double-blind, placebo-controlled, parallel group trial in 15 subjects, randomized to 3 parallel groups of 5 subjects each. The subjects received two single doses in a randomized cross-over design. There was an interval of at least 3 days between the drug administrations. Subjects were male volunteers with a good physical and mental health, aged 18-45 years, body mass index 18-28 kg/m^2.
(§3) A freeze dried cake of compound 1 (Batch No CW122) was reconstituted with sterile water and subsequently further diluted with orange juice to a total volume of 200 mL for oral administration. Dose levels used were: • Group 1: 8 mg compound 1 and […] • Group 2: 16 mg compound 1 and placebo • Group 3: 8 mg compound 1 and 4 mg compound 1
(§4) Serum samples for LH, FSH and testosterone analysis were taken at time points: pre-dose and 1, 2, 3, 4, 6 and 12 hours post dose. Serum was stored at −40° C.
(§5) LH and FSH were measured using a DELFIA assay. […] Testosterone was measured using a DELFIA testosterone assay; a solid phase fluoro-immuno-assay based on competition between Europium-labeled Testosterone and sample Testosterone.

[2] = tested on: FSH; test: Experiment 3: multiple oral dose study, serum FSH (DELFIA); details: healthy male volunteers, 4, 8, 16 mg q.d. or 12 mg b.i.d. oral
Excerpt: (§6) A phase I, double-blind, placebo-controlled, parallel group, multiple oral dose and multiple ascending dose study with compound 1 in healthy male volunteers to assess the safety, tolerability, pharmacokinetics and pharmacodynamics of compound 1 after single, multiple and multiple ascending doses.
(§7) This was a single center, double-blind, placebo-controlled, parallel group design. A total of 40 subjects were randomized over 5 groups of 8 subjects; within each group 6 subjects received multiple oral doses of compound 1 and 2 subjects received placebo. Subjects were male volunteers with a good physical and mental health, aged 18-45 years, body mass index 18-28 kg/m^2.
(§8) Freeze dried cake of compound 1 (Batch No. CW 186) was supplied in 10 mL vials (50 mg active entity in 10 mL vials). The freeze dried cake was reconstituted with sterile de-ionized water B.P and subsequently diluted with sterile de-ionized water to a dose volume of 50 mL. […]
(§9) LH and FSH were measured using a DELFIA assay. […] Testosterone was measured using a DELFIA testosterone assay; a solid phase fluoro-immuno-assay based on competition between Europium-labeled Testosterone and sample Testosterone. […]

[3] = tested on: FSH; test: Experiment 2: single-dose crossover trial, serum FSH (DELFIA); details: healthy male volunteers, single oral doses 5, 13, 20 mg
Excerpt: (§10) A single-dose, double-blind, placebo-controlled, randomized, crossover trial to evaluate visual effects of compound 1 in healthy male volunteers
(§11) This was a double-blind, placebo-controlled, four-period crossover study involving the administration of three single oral doses of compound 1 and placebo in 24 healthy male subjects. For each subject the compound 1 treatments were randomized in ascending order, each treatment period was separated by at least 3 days wash-out. Subjects were male volunteers with a good physical and mental health, aged 18-45 years, body mass index 18-28 kg/m^2.
(§12) A freeze dried cake of compound 1 (Batch No CW122) was reconstituted with de-ionized water BP and subsequently diluted with gelatin/mannitol to 50 mL solution for oral administration. Dose levels of compound 1 used in this trial were: 5 mg, 13 mg and 20 mg
(§13) Serum samples for LH, FSH and testosterone analysis were taken at time points: pre-dose and 20′, 45′, 1h10′, 1h35′, 2h, 2h25′, 2h50′, 3h15′, 4h, 6h, 8h, 12h, 16h and 24h post-dose. Serum was stored at −40° C.
(§14) LH and FSH were measured using a DELFIA assay. The DELFIA LH and DELFIA FSH assays are solid phase, two-site fluoroimmunometric assays based on the direct sandwich technique. Testosterone was measured using a DELFIA testosterone assay; a solid phase fluoro-immuno-assay based on competition between Europium-labeled Testosterone and sample Testosterone.
(§15) Descriptive statistics for serum FSH, LH and testosterone concentrations were calculated, both as absolute values and as percentage of baseline. In addition the following parameters were calculated: Cmin, tmin, Cmean,0-24, both Cmin and Cmean,0-24 were expressed in absolute values and as percentage of baseline. No formal statistical analysis was done on these PD parameters. Only descriptive statistics were calculated by dose. Furthermore, summary plots of the PD parameters versus treatment were made

[4] = tested on: LH; test: Experiment 2: single-dose crossover trial, serum LH (DELFIA); details: healthy male volunteers, single oral doses 5, 13, 20 mg
Excerpt: as §10, §11, §12, §13, §14, §15

[5] = tested on: testosterone; test: Experiment 2: single-dose crossover trial, serum testosterone (DELFIA); details: healthy male volunteers, single oral doses 5, 13, 20 mg
Excerpt: as §10, §11, §12, §13, §14, §15

[6] = tested on: testosterone; test: Experiment 4: single oral dose pharmacodynamic study, serum testosterone (DELFIA); details: healthy male volunteers, single oral doses 4, 8, 16 mg
Excerpt: as §1, §2, §3, §4, §5

[7] = tested on: FSH; test: Experiment 1: single rising oral dose trial, serum FSH (DELFIA); details: healthy male volunteers, single oral doses 0.5-30 mg, 0-12 h period; slower than LH
Experimental: (§16) A double-blind, cross-over, placebo controlled, single rising oral dose trial with compound 1 was carried out in healthy male volunteers to assess its tolerability, safety, pharmacokinetic and pharmacodynamic profile.
(§17) This was a double-blind, placebo-controlled, single rising oral dose study in 16 subjects. Each subject was assigned to one of 4 dosing groups and received 3 successive single oral doses of compound 1 and placebo in a four-way cross-over design. Subjects were male volunteers with a good physical and mental health, aged 18-45 years, body mass index […]. […]
as §5
(§18) Effect of treatment was characterised by calculating areas under the effect curve (AUE) over 0-4 h and 0-final assessment time periods. AUEs were calculated with the linear trapezoidal rule using protocol times. […] All measures were analysed using analysis of variance with factors subject and treatment and with the prevalue as covariate. A linear contrast on dose group was calculated with dose groups assigned in ascending order.

[8] = tested on: testosterone; test: Experiment 3: multiple oral dose study, serum testosterone (DELFIA)
Excerpt: as §6, §7
Freeze dried cake of compound 1 (Batch No. CW 186) was supplied in 10 mL vials (50 mg active entity in 10 mL vials). The freeze dried cake was reconstituted with sterile de-ionized water B.P and subsequently diluted with sterile de-ionized water to a dose volume of 50 mL. Compound 1 was administered as an oral solution (50 mL) according to the following schedule: • Group 1: a single dose of 4 mg compound 1 on day 1 followed by once daily dosing of 4 mg compound 1 on days 4 to 13 • Group 2: a single dose of 8 mg compound 1 on day 1 followed by once daily dosing of 8 mg compound 1 on days 4 to 13 • Group 3: a single dose of 16 mg compound 1 on day 1 followed by once daily dosing of 16 mg compound 1 on days 4 to 13 • Group 4: a single dose of 12 mg compound 1 on day 1, twice daily dosing of 12 mg compound 1 on days 4 to 12 followed by a single dose of 16 mg compound 1 on day 13
For group 5 a dose titration was used. In this group no samples for LH, FSH and testosterone were taken. […]
as §9

[9] = tested on: LH; test: Experiment 4: single oral dose pharmacodynamic study, serum LH (DELFIA); details: healthy male volunteers, single oral doses 4, 8, 16 mg
Excerpt: as §1, §2, §3, §4, §5

[10] = tested on: LH; test: Experiment 1: single rising oral dose trial, serum LH (DELFIA); details: healthy male volunteers, single oral doses 0.5-30 mg, 0 to 12 hours post-dose, vs placebo
Experimental: as §16, §17, §5, §18

[11] = tested on: LH; test: Experiment 3: multiple oral dose study, serum LH (DELFIA); details: healthy male volunteers, 4, 8, 16 mg q.d. or 12 mg b.i.d. oral
Excerpt: as §6, §7, §8, §9

[12] = tested on: testosterone; test: Experiment 1: single rising oral dose trial, serum testosterone (DELFIA); details: healthy male volunteers, single oral doses 0.5-30 mg, 0-12 h period; slower than LH
Experimental: as §16, §17, §5, §18

[13] = decrease generally largest after 16 mg
[14] = 0-24 h, compared with adjusted Cmin

COc1ccc2c(c1)CC[C@H](CN(C)CC(=O)O)[C@@H]2c1ccccc1.Cl [compound 1]
effect on FSH [1]: No effect
time of maximum decrease in FSH values post-dose [2]: 6 to 12 h
mean FSH values [2, 13]: decreased following dosing
adjusted Cmin FSH [3]: decrease with increasing active dose
effect on FSH concentrations [3]: not clearly visible
adjusted Cmean FSH [3, 14]: decreases are smaller and less consistent
adjusted Cmin LH [4]: decrease with increasing active dose
time of largest LH decrease post dose [4]: approximately 4 h
adjusted Cmean LH [4, 14]: decreases are smaller and less consistent
LH concentrations after treatment ([4]; decreases larger at increasing doses): decrease after compound 1 treatment
adjusted Cmin Testosterone [5]: decrease with increasing active dose
adjusted Cmean testosterone [5, 14]: decreases are smaller and less consistent
testosterone concentrations after treatment ([5]; decreases larger at increasing doses, somewhat slower than LH): decrease after compound 1 treatment
testosterone suppression [6]: suppressed to some extent
FSH concentrations, linear contrast on dose [7]: significant linear decreases with rising doses
time post-dose until which testosterone levels dropped ([8]; healthy male volunteers, 4, 8, 16 mg q.d. or 12 mg b.i.d. oral): 6 to 12 h
testosterone levels after dosing ([8]; healthy male volunteers, 4, 8, 16 mg q.d. or 12 mg b.i.d. oral, partly circadian rhythm, afterwards back to approximately baseline): dropped sharply after dosing
magnitude of the testosterone decrease compared with placebo ([8]; largest decreases in the 16 mg q.d. and 12 mg b.i.d groups): generally larger following administration of compound 1
LH suppression [9]: suppressed to some extent
treatment effect on LH levels (decrease) [10]: statistically significant treatment effect
time of maximum decreases in LH after dosing [11]: 2 h
mean LH values [11, 13]: decreased following dosing
testosterone concentrations, linear contrast on dose [12]: significant linear decreases with rising doses
